Laboratory results taken from patent publication US20050255493A1, “Molecular targeting of the IGF-1 receptor” (priority 2002, published 2005).

How the values were obtained:
IGF1R [1] = experiment: IGF1R level by immunoblotting in transfected MDA-231 cells; assay type: cell-based, human; conditions: MDA-231 cells, 300 nM ASO, 48 hr, vs scrambled control
Procedure: (§1) The human and murine cell lines used in this study were cultured in RPMI 1640 plus 10% FCS at 37° C. in a humidified atmosphere of 5% CO2. The cultures were negative when tested for Mycoplasma infection. Cultures were passaged the day before transfection to achieve 30-50% confluence the following day. Initial transfections of ASOs used 1-2.5 μg/ml Cytofectin (Glen Research, Sterling, Va.), according to the manufacturer's instructions. Latterly Oligofectamine (Life Sciences) has been used for all ASO and RNAi transfections. The method was as described (see manufacturer's instructions and www.dharmacon.com) with minor modifications. For transfection of monolayers seeded in 6 well plates, 5 μl phosphorothioate oligonucleotide or RNA duplex at 100× final concentration were mixed with 2501 serum-free Optimem (Gibco-BRL). In a separate tube 2 μl Oligofectamine was mixed with 68 μl Optimem. After 10 min incubation at room temperature the contents of the two tubes were mixed and incubated for a further 25 min at room temperature. Monolayers were washed with 1-2 ml Optimem. To the cells were added 175 μl Optimem followed by the 325 μl complexes. Volumes were scaled up by factors of 2.22 or 6.05 for transfection in 60 mm or 100 mm dishes respectively. Cultures were incubated at 37° C. for 4 hr, and then 50 μl FCS and 3.5 ml RPMI plus 5% FCS were added to each well. After 48 hr incubation effects on IGF1R and IR expression were determined by immunoblotting. Some transfected cultures were serum-starved overnight, divided into two aliquots and treated with 10 nM Long R3-IGF-I (GroPep, Adelaide) or diluent for 30 min at 37° C. prior to lysis.
(§2) IGF1R expression was assessed by immunoblotting as previously described (Macaulay et al 2001). After washing in ice-cold PBS, cells were lysed in 50 mM Hepes pH 7.5, 100 mM NaCl, 10 mM EDTA, 1% Triton-X-100, 4 mM sodium pyrophosphate, 2 mM sodium orthovanadate, 10 mM sodium fluoride, 1 mM PMSF, 2 μg/ml each leupeptin and aprotinin. Lysates were centrifuged for 15 minutes at 14,000 g, the protein concentration of supernatants was measured using BCA assay reagent (Pierce), and equivalent amounts of protein were separated on 7.5% SDS-PAGE gels and transferred to nitrocellulose. Target protein levels were assessed using antibodies to the β-subunit of the IGF1R or IR (Santa Cruz), phospho-Ser 473 Akt or total Akt (Cell Signalling, New England Biolabs) or β-tubulin (Sigma). Activated IGF1R was detected by immunoprecipitation for phosphotyrosine (P-Tyr-100, Cell Signaling Technology). Primary antibodies were detected with HRP-conjugated secondary antibodies (Dako), and ECL Plus (Amersham Pharmacia).
(§3) The ASOs and RNAi duplexes were transfected into MDA-231 cells (human ER negative breast cancer) using Cytofectin or Oligofectamine, as described above. After 48 hr the cells were lysed, and IGF1R and IR levels were measured by immunoblotting. The intensity of the autoradiographic bands was quantified by densitometry, and IGF1R (or IR) levels were corrected for loading differences. The specific IGF1R or IR results are presented as % IGF1R (or IR) level of that in cells transfected with the same concentration of an appropriate control. This was a scrambled control oligonucleotide for ASOs, and an inverted RNA duplex for RNAi.

IR = IR level by immunoblotting in transfected MDA-231 cells; assay type: cell-based, human
Procedure: as §1, §2, §3

IGF1R [2] = experiment: IGF1R expression in UC101 ovarian cancer cells treated with 18mer ASOs; assay type: cell-based, human
Procedure: as §1, with “Volumes were scaled up by factors of 2.22 or 6.05 for transfection in 60 mm or 100 mm dishes respectively. Cultures were incubated at 37° C. for 4 hr, and then 50 μl FCS and 3.5 ml RPMI plus 5% FCS were added to each well.” left out, “Some transfected cultures were serum-starved overnight, divided into two aliquots and treated with 10 nM Long R3-IGF-I (GroPep, Adelaide) or diluent for 30 min at 37° C. prior to lysis.” left out
as §2, with “After washing in ice-cold PBS, cells were lysed in 50 mM Hepes pH 7.5, 100 mM NaCl, 10 mM EDTA, 1% Triton-X-100, 4 mM sodium pyrophosphate, 2 mM sodium orthovanadate, 10 mM sodium fluoride, 1 mM PMSF, 2 μg/ml each leupeptin and aprotinin.” left out, “Pharmacia). […]” for “Pharmacia).”

IGF1R mRNA = experiment: Oligonucleotide scanning array hybridisation with labelled transcript; assay type: binding, human; conditions: for Rel hyb intensity: relative to the most strongly hybridising sequence on the array; for Hyb intensity: scanning array probed with labelled IGF1R mRNA
Procedure: Scanning arrays complementary to the region of the IGF1R mRNA from position 537-685 were prepared using the standard techniques described in Southern E. M. et al., Nucleic Acids Res., 1994, 22(8): 1368-1373; and Sohail, M. and Southern, E. M. “Using oligonucleotide scanning arrays to find effective antisense reagents”, Methods in Molecular Biology, vol. 170: DNA Arrays: Methods and Protocols, Ed J. B. Rampal, Humana Press Inc., Totowa, N.J.
The scanning arrays comprise sets of oligonucleotides of various lengths. A series of oligonucleotides, complementary to the target mRNA, is made by sequential coupling of nucleotides to a solid surface. The DNA synthesis reagents are applied to a confined area on the surface of the solid support using a mask. The mask is shifted along the surface after each round of coupling, resulting in a series of oligonucleotides each complementary to a region of the target sequence.
• 2. Remove 1 μL for quantitation (see below). • 3. Remove unincorporated label by Sephadex® G25 column chromatography (see Note 11). • 4. Save 1 μL of the purified transcript for quantitation (see below). • 5. Check the integrity of the transcript by denaturing polyacrylamide gel electrophoresis (10). • 6. Add 10 μL of the scintillation fluid to the samples saved in Steps 2 and 4. • 7. Mix by vortexing and count the samples in a scintillation counter for 1 min. • 8. Calculate the percent incorporation: [formula] • 9. Calculate the amount of RNA made: [formula] Hybridisation to Arrays Made on Polypropylene • 1. Place the array in the hybridisation tube, coiling it in a spiral. • 2. Dilute the radiolabelled transcript in an appropriate volume (10-20 mL depending upon the size of the array and the hybridisation tube) of hybridisation buffer. The mix should cover the array along the length of the tube. • 3. Place items 1 and 2 in the oven at desired temperature for 30 min. Also put approximately 100 mL of the hybridisation buffer in the oven: this is to be used to wash the array at the end of hybridisation. • 4. Pour the hybridisation mix into the tube containing the array and hybridise for 3-4 h. • 5. Remove the hybridisation mix. Briefly wash the array with the hybridisation buffer from Step 3, air dry, cover with cling film and expose to a storage phosphor screen for 16-20 h (see Note 12). • 6. Scan the screen on PhosphorImager or STORM and analyse the image using xvseq (see below). Hybridisation to Arrays Made on Glass • 1. Clean the non-array glass plate with acetone and ethanol to ensure it is grease-free and siliconise it by treatment with dimethyl dichlorosilane solution and place it in lidded box. Also place moist paper towel in the box. • 2. Dilute the radiolabelled transcript in an appropriate volume of the hybridisation buffer (for example, for an array of 250 mm×50 mm use 500-750 μL). • 3. Place items 1 and 2 in an incubator at desired temprature for 30 min. Also put approximately 100 mL of the hybridisation buffer in the oven: this is to be used to wash the array at the end of hybridisation. • 4. Using a micropipette, pipette the hybridisation mix in a line evenly along the length of the non-array glass plate, avoiding formation of air bubbles. • 5. Starting at one end, carefully place the scanning array (face down) on top of the hybridisation mix. The mix will spread out and form a thin film between the two plates. Incubate for 3-4 h. • 6. Separate the plates from each other and wash the array plate with hybridisation buffer to remove unbound mix. Drain the plate, air dry, cover with cling film and expose to a storage phosphor screen for 16-20 h. • 7. Scan the screen on PhosphorImager or STORM and analyse the image using xvseq (see below). Alternative Hybridisation Protocol for Glass or Polypropylene • 1. Assemble with clips the array plate (or polypropylene array pasted with PhotoMount™ on a glass plate) and the non-array plate, using rubber tubing as spacers on two sides. • 2. […]

IGF1R [3] = experiment: IGF1R levels by immunoblotting in human tumour cell lines transfected with RNAi duplexes; assay type: cell-based; conditions: human ovarian (UC101) and prostate (DU145) cancer cells, 10 nM
Procedure: as §1
as §2, with “Pharmacia). […]” for “Pharmacia).”
Tumour cells were transfected with 10 nM duplexes and IGF1R levels were measured after 48 hr. After correction for loading differences IGF1R levels in cells transfected with RNAi were expressed as % of levels in cells transfected with equivalent inverted control duplex.

[4] = tested on: UC101 human ovarian cancer cells; experiment: Tumorigenicity of UC101 ovarian cancer cells transfected with siRNA (xenografts); assay type: in vivo, female athymic (nu/nu mice); conditions: UC101 cells transfected with 200 nM siRNA, nu/nu mice
Procedure: UC101 ovarian cancer cells were transfected with 200 nM siRNA, mixed with irradiated NIH-3T3 cells and inoculated into the flanks of female athymic (nu/nu mice).
Tumorigenicity testing was conducted using UC101 human ovarian cancer cells transfected with 200 nM siRNA. After 48 hr the cells were inoculated into the flanks of female athymic (nu/nu mice), using 5×10^6 tumour cells mixed with 5×10^6 irradiated NIH-3T3 cells per mouse. Tumours were measured and volumes calculated as described (Macaulay et al., Oncogene 20: 2029-40, 2001). All procedures were performed in accordance with the Home Office Scientific Procedures Act 1986, and with the approval of the Animal Ethics Committee of Cancer Research UK.

MDA-MB-231 cells = experiment: Clonogenic survival and post-irradiation survival (SF2) of transfected MDA-MB-231 cells; assay type: cell-based, human; conditions: MDA-MB-231, 100 nM, unirradiated
Procedure: FIG. 7 A) MDA-MB-231 cells transfected with 100 nM RNA duplexes were serum-starved overnight and treated with 50 nM IGF-I for 30 min. […] Results represent mean±sem of colony counts in triplicate dishes. Similar results were obtained in two further clonogenic assays. • C) Clonogenic survival of transfected MDA-MB-231 cells that were unirradiated or irradiated at 2Gy. The fraction surviving 2Gy irradiation (SF2) is shown as mean±sem of three independent assays.
The effect of transfection with 100 nM ASO4 or siRNA duplexes R4 and R5, equivalent to strongly and weakly hybridizing ASOs respectively, on colony forming efficiency and post-irradiation survival was also evaluated. […] This in turn illustrates the utility of hybridisation to the scanning ASO array in the selection of siRNA reagents, since relative hybridisation to the array is found to be predictive of activity in RNA interference and biological efficacy.

Substance	IGF1R Protein Level (% control) (IGF1R [1])	IR Protein Level (% control) (IR; 300 nM ASO, 48 hr, vs scrambled control)	IGF1R expression, % of levels in cells treated with scrambled control (IGF1R [2])	Hybridisation to IGF1R mRNA on scanning array (IGF1R mRNA; 37° C. (and 23° C.))	Rel hyb intensity (IGF1R mRNA)	Hyb intensity (IGF1R mRNA)	IR downregulation (IR; TSS ASO at 300 nM)	IGF1R downregulation, R4 compared with R5 (IGF1R [3])	Tumour development [4]	Clonogenic survival (MDA-MB-231 cells)
ASO6: phosphorothioate antisense oligonucleotide CTTATTCCCCACAATGTA, SEQ ID NO:17; poorly hybridising comparison (DNA, all phosphorothioate, methylation of C not given here)	˜150 % control	100	98% of levels in cells treated with Scr6	hybridises poorly	0.01	560				
TSS ASO: ASO TCCTCCGGAGCCAGACTT, SEQ ID NO:21, complementary to human IGF1R translation initiation site, identical to that described by Baserga et al. (DNA, all phosphorothioate, methylation of C not given here) [reference compound]			33% of levels in cells treated with				detectable reduction in IR levels			
R5: RNAi duplex UGAGUACAACUACCGCUGCTT / TTACUCAUGUUGAUGGCGACG, SEQ ID NO:32 (UGAGUACAACUACCGCUGCNN; second strand not cited, chemistry not fully specified)								induced IGF1R downregulation	rapidly growing tumours	inhibited survival
ASO2/18mer: phosphorothioate antisense oligonucleotide GGTCTTCTCACACATCGG, SEQ ID NO:6 (DNA, all phosphorothioate, methylation of C not given here)			39% of levels in cells treated with Scr2		1.00	56,026				
